Here are results for 2 sequences from article PMC2949846 (Virology Journal, 2010).

The solubility is how much of the substance goes into solution per volume. A lower solubility goes with a poorly soluble substance.

The data set can be described thus: physchem. The following applies: water.

No end group written: not given here.

EAKSSIAKHFSLWKSYADADIKNSENK [A] showed a solubility of 2000 µg/mL.

Regarding FHNSNSRILFNQENNNFMYS [B], the solubility came out at 2000 µg/mL.
